# Like-named read-outs stand apart in the source and are kept apart here. Positions of bridges follow the written chain, without caps; N, C: chain ends. Non-standard residues stand in square brackets, D forms with d. Residues, ends and D or L forms follow the SMILES beside them. NMeW = CN[C@@H](Cc1c[nH]c2ccccc12)C(=O)O
# Experiments:
# Assay in all cases: cell-based
# [1] = biological target: hNav1.3 (Homo sapiens, UniProt Q9NY46); details: IonWorks Quattro, read-out: IWQ Use Nav1.3
# [2] = biological target: hNav1.5 (Homo sapiens, UniProt Q14524)
# [3] = biological target: hNav1.7 (Homo sapiens, UniProt Q15858); assay type: cell-based
# Sequence of hNav1.7 (Q15858 whole entry, looked up): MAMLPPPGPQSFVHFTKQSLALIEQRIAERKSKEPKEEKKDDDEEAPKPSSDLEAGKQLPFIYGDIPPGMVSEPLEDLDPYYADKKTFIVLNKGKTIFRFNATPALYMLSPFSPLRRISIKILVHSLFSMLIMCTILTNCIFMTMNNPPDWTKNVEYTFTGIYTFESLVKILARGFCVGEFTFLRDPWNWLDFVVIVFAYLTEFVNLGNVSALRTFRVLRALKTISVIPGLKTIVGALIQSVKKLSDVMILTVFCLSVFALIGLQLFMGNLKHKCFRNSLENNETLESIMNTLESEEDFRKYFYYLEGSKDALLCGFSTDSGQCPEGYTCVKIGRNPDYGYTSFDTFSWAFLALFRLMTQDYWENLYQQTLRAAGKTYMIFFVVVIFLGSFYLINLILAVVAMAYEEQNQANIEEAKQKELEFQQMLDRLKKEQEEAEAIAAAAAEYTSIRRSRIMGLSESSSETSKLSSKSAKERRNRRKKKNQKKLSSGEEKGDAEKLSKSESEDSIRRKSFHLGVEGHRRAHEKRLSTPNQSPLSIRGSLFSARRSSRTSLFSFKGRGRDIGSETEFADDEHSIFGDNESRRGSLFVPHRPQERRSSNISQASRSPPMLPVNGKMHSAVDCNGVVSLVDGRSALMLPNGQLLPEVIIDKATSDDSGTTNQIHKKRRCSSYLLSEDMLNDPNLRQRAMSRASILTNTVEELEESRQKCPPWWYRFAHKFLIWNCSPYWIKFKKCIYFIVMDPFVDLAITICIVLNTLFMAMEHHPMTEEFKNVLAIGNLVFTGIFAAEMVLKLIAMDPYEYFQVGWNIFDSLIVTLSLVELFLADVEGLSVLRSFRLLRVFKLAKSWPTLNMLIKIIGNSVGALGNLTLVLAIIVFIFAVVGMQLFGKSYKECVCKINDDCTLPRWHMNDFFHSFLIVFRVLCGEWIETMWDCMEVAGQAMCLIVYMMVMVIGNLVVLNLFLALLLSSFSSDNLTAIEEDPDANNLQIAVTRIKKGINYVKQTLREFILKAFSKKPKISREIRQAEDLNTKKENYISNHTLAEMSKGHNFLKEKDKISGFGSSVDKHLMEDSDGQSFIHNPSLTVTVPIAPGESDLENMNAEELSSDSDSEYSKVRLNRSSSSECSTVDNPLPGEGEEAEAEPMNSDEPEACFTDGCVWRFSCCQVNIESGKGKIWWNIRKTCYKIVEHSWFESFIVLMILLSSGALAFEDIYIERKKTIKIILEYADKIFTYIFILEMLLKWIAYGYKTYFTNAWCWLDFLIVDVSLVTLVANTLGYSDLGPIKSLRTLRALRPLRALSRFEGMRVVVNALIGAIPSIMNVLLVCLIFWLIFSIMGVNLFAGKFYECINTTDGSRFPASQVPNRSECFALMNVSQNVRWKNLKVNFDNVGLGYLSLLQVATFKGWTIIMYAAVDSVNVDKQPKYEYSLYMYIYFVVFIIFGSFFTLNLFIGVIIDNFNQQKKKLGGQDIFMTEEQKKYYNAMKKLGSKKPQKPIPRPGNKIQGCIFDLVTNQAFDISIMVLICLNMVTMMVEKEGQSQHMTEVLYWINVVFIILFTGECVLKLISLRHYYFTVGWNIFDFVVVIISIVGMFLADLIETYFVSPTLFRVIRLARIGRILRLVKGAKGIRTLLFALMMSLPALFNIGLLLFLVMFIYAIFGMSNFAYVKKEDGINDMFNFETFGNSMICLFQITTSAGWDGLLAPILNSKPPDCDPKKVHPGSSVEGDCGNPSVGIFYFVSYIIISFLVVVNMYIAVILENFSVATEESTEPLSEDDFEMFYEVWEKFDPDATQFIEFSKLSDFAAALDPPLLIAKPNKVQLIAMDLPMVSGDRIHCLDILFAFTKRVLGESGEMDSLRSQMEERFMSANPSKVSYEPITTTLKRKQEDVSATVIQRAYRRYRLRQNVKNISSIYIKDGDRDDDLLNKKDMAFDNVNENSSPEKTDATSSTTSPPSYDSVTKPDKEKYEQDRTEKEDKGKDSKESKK
# [4] = clamped to −110 mV, depolarized to −10 mV, 5 min after compound, n=2
# [5] = IonWorks Quattro, clamped to −110 mV, depolarized to −10 mV, 5 min after compound, n=2, read-out: IWQ Use Nav1.5
# [6] = IonWorks Quattro, clamped to −110 mV, depolarized to −10 mV, 5 min after compound, n=2, read-out: IWQ Use Nav1.7
# Sequence of hNav1.3 (Q9NY46 whole entry, looked up): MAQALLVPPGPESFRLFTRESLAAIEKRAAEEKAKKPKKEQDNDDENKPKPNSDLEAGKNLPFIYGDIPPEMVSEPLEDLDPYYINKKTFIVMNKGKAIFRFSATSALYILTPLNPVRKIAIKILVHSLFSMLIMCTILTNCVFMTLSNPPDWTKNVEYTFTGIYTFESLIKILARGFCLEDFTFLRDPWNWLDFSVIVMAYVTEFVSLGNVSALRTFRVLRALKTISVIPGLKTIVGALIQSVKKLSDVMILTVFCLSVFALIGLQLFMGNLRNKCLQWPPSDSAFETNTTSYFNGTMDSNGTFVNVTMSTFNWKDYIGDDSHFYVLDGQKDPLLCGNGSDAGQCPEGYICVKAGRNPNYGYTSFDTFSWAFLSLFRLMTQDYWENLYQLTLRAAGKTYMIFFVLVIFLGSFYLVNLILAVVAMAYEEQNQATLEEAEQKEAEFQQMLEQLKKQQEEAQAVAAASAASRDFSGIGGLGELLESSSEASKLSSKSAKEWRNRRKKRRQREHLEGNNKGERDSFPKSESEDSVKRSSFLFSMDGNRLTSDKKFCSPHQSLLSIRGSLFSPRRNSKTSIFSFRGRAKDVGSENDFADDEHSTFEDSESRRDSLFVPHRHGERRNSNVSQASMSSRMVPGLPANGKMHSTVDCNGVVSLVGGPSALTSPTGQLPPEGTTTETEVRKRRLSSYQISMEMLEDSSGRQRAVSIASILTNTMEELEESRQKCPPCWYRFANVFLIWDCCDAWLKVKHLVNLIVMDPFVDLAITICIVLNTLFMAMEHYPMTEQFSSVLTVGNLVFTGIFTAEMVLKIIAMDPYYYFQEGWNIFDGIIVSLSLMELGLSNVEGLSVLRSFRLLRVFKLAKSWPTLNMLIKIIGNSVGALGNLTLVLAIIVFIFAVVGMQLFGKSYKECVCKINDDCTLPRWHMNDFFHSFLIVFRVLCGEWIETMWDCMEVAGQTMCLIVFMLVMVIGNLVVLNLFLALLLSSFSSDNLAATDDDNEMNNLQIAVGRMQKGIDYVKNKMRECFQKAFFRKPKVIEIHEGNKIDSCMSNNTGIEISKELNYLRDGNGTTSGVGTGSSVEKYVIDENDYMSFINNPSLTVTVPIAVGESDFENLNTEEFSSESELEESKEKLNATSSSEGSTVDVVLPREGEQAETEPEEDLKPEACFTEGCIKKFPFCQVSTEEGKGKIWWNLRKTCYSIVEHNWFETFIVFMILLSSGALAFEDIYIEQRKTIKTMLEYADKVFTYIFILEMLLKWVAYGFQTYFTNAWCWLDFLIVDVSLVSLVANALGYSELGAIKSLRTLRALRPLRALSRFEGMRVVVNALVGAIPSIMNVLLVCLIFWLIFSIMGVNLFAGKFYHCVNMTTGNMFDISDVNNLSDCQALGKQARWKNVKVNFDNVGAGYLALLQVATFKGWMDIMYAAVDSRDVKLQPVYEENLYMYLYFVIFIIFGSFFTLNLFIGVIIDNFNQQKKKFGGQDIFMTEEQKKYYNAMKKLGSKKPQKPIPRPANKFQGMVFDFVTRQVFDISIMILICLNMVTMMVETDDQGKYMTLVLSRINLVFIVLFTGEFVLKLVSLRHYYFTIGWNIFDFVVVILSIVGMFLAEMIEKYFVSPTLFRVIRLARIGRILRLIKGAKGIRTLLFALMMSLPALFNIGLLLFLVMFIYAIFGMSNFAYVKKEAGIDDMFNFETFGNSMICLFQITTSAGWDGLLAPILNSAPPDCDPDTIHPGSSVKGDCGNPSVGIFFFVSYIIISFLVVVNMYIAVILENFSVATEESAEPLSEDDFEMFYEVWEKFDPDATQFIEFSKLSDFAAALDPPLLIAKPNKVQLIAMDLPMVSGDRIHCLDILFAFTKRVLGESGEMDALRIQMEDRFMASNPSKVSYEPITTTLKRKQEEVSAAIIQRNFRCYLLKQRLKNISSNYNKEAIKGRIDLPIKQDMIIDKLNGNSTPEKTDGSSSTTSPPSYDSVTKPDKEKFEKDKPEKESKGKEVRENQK
structure (smiles),measurement,setting,value
"CC[C@H](C)[C@@H]1NC(=O)[C@@H]2CSSC[C@@H]3NC(=O)[C@H](C(C)C)NC(=O)[C@H](CC(C)C)NC(=O)[C@H](CC(N)=O)NC(=O)[C@@H]4CCCN4C(=O)[C@H](CCCNC(=N)N)NC(=O)[C@H](CSSC[C@H](NC(=O)[C@@H](N)[C@@H](C)O)C(=O)N[C@@H](CC(C)C)C(=O)NCC(=O)N[C@@H](Cc4ccccc4)C(=O)N[C@@H](CCSC)C(=O)N[C@@H](CCCNC(=N)N)C(=O)N[C@@H](CCCCN)C(=O)N2)NC(=O)[C@H](CSSC[C@@H](C(=O)N[C@@H](CCCCN)C(=O)N[C@@H](Cc2ccc(O)cc2)C(=O)N[C@H](C(=O)N[C@@H](Cc2ccccc2)C(N)=O)C(C)C)NC(=O)[C@H](Cc2c[nH]c4ccccc24)NC(=O)[C@H](CCCCN)NC(=O)[C@H](Cc2c[nH]cn2)NC(=O)[C@H]([C@@H](C)O)NC(=O)[C@H](CCCNC(=N)N)NC(=O)[C@H](CO)NC3=O)NC(=O)[C@H](CCCCN)NC(=O)[C@H](CC(=O)O)NC(=O)[C@H](CC(N)=O)NC(=O)[C@H](CC(=O)O)NC(=O)[C@@H]2CCCN2C1=O [SEQ ID NO: 192] (H-TCLGFMRKCIPDNDKCCRPNLVCSRTHKWCKYVF-NH2; disulfide 2-17, 9-23, 16-30)",IC50,[1]; [4],70 nM
same,IC50,[2]; [5],9.21 µM
same,IC50,[3]; [6],110 nM
"CC[C@H](C)[C@@H]1NC(=O)[C@@H]2CSSC[C@@H]3NC(=O)[C@H](C(C)C)NC(=O)[C@H](Cc4c[nH]c5ccccc45)NC(=O)[C@H](CC(N)=O)NC(=O)[C@@H]4CCCN4C(=O)[C@H](CCCNC(=N)N)NC(=O)[C@H](CSSC[C@H](NC(=O)[C@@H](N)CC(=O)O)C(=O)N[C@@H](CC(C)C)C(=O)NCC(=O)N[C@@H](Cc4ccccc4)C(=O)N[C@@H](CCSC)C(=O)N[C@@H](CCCNC(=N)N)C(=O)N[C@@H](CCCCN)C(=O)N2)NC(=O)[C@H](CSSC[C@@H](C(=O)N[C@@H](CCCCN)C(=O)N[C@@H](Cc2ccc(O)cc2)C(=O)N[C@H](C(=O)N[C@@H](Cc2ccccc2)C(N)=O)C(C)C)NC(=O)[C@H](Cc2c[nH]c4ccccc24)NC(=O)[C@H](CCCCN)NC(=O)[C@H](Cc2cnc[nH]2)NC(=O)[C@H]([C@@H](C)O)NC(=O)[C@H](CCCNC(=N)N)NC(=O)[C@H](CO)NC3=O)NC(=O)[C@H](CCCCN)NC(=O)[C@H](CC(=O)O)NC(=O)[C@H](CC(N)=O)NC(=O)[C@H](CC(=O)O)NC(=O)[C@@H]2CCCN2C1=O [compound 176] (H-DCLGFMRKCIPDNDKCCRPNWVCSRTHKWCKYVF-NH2; disulfide 2-17, 9-23, 16-30)",IC50,[1]; Use,50 nM
same,IC50,[2]; IWQ Use Nav1.5 (μM),13.8 µM
same,IC50,[3],100 nM
"CC[C@H](C)[C@@H]1NC(=O)[C@@H]2CSSC[C@@H]3NC(=O)[C@H](C(C)C)NC(=O)[C@H](CC(C)C)NC(=O)[C@H](CC(N)=O)NC(=O)[C@@H]4CCCN4C(=O)[C@H](CCCNC(=N)N)NC(=O)[C@H](CSSC[C@H](NC(=O)[C@@H](N)CC(=O)O)C(=O)N[C@@H](CC(C)C)C(=O)NCC(=O)NCC(=O)N[C@@H](CCSC)C(=O)N[C@@H](CCCNC(=N)N)C(=O)N[C@@H](CCCCN)C(=O)N2)NC(=O)[C@H](CSSC[C@@H](C(=O)N[C@@H](CCCCN)C(=O)N[C@@H](Cc2ccc(O)cc2)C(=O)N[C@H](C(=O)N[C@@H](Cc2ccccc2)C(N)=O)C(C)C)NC(=O)[C@H](Cc2c[nH]c4ccccc24)NC(=O)[C@H](CCCCN)NC(=O)[C@H](Cc2cnc[nH]2)NC(=O)[C@H]([C@@H](C)O)NC(=O)[C@H](CCCNC(=N)N)NC(=O)[C@H](CO)NC3=O)NC(=O)[C@H](CCCCN)NC(=O)[C@H](CC(=O)O)NC(=O)[C@H](CC(N)=O)NC(=O)[C@H](CC(=O)O)NC(=O)[C@@H]2CCCN2C1=O [SEQ ID NO: 265] (H-DCLGGMRKCIPDNDKCCRPNLVCSRTHKWCKYVF-NH2; disulfide 2-17, 9-23, 16-30)",IC50,[1]; [4],1240 nM
same,IC50,[2]; [5],7.47 µM
same,IC50,[3]; [6],750 nM
"CC[C@H](C)[C@@H]1NC(=O)[C@@H]2CSSC[C@@H]3NC(=O)[C@H](C(C)C)NC(=O)[C@H](CC(C)C)NC(=O)[C@H](CC(N)=O)NC(=O)[C@@H]4CCCN4C(=O)[C@H](CCCNC(=N)N)NC(=O)[C@H](CSSC[C@H](NC(=O)[C@@H](N)CC(=O)O)C(=O)N[C@@H](CC(C)C)C(=O)NCC(=O)N[C@@H](Cc4ccccc4)C(=O)N[C@@H](CCSC)C(=O)N[C@@H](CCCNC(=N)N)C(=O)N[C@@H](CCCCN)C(=O)N2)NC(=O)[C@H](CSSC[C@@H](C(=O)N[C@@H](CCCCN)C(=O)N[C@@H](Cc2ccc(O)cc2)C(=O)N(C)[C@@H](Cc2c[nH]c4ccccc24)C(=O)N[C@@H](Cc2ccccc2)C(N)=O)NC(=O)[C@H](Cc2c[nH]c4ccccc24)NC(=O)[C@H](CCCCN)NC(=O)[C@H](Cc2c[nH]cn2)NC(=O)[C@H]([C@@H](C)O)NC(=O)[C@H](CCCNC(=N)N)NC(=O)[C@H](CO)NC3=O)NC(=O)[C@H](CCCCN)NC(=O)[C@H](CC(=O)O)NC(=O)[C@H](CC(N)=O)NC(=O)[C@H](CC(=O)O)NC(=O)[C@@H]2CCCN2C1=O [compound 389] (H-DCLGFMRKCIPDNDKCCRPNLVCSRTHKWCKY[NMeW]F-NH2; disulfide 2-17, 9-23, 16-30)",IC50,"[1]; Table 26, use, […]",290 nM
same,IC50,"[2]; Table 26, IonWorks Quattro, use, […], read-out: IWQ Use Nav1.5",> 5 µM
same,IC50,"[3]; Table 26, IonWorks Quattro, use, […], read-out: IWQ Use Nav1.7",350 nM
"CC[C@H](C)[C@@H]1NC(=O)[C@@H]2CSSC[C@@H]3NC(=O)[C@H](C(C)C)NC(=O)[C@H](CC(C)C)NC(=O)[C@H](CC(N)=O)NC(=O)[C@@H]4CCCN4C(=O)[C@H](CCCNC(=N)N)NC(=O)[C@H](CSSC[C@H](NC(=O)[C@@H](N)CC(=O)O)C(=O)N[C@@H](CC(C)C)C(=O)NCC(=O)N[C@@H](Cc4ccccc4)C(=O)N[C@@H](CCSC)C(=O)N[C@@H](CCCNC(=N)N)C(=O)N[C@@H](CCCCN)C(=O)N2)NC(=O)[C@H](CSSC[C@@H](C(=O)N[C@@H](CCCCN)C(=O)N[C@@H](Cc2ccc(O)cc2)C(=O)N[C@H](C(=O)N[C@@H](Cc2c[nH]c4ccccc24)C(N)=O)C(C)C)NC(=O)[C@H](Cc2c[nH]c4ccccc24)NC(=O)[C@H](CCCCN)NC(=O)[C@H](Cc2c[nH]cn2)NC(=O)[C@H]([C@@H](C)O)NC(=O)[C@H](CCCNC(=N)N)NC(=O)[C@H](CO)NC3=O)NC(=O)[C@H](CCCCN)NC(=O)[C@H](CC(=O)O)NC(=O)[C@H](CC(N)=O)NC(=O)[C@H](CC(=O)O)NC(=O)[C@@H]2CCCN2C1=O [compound 86] (H-DCLGFMRKCIPDNDKCCRPNLVCSRTHKWCKYVW-NH2; disulfide 2-17, 9-23, 16-30)",IC50,"[1]; use-dependent, […]",180 nM
same,IC50,"[2]; IonWorks Quattro, use-dependent, […], read-out: IWQ Use Nav1.5",10 µM
same,IC50,"[3]; IonWorks Quattro, use-dependent, […], read-out: IWQ Use Nav1.7",260 nM
CC[C@H](C)[C@@H]1NC(=O)[C@@H]2CSSC[C@@H]3NC(=O)[C@H](C(C)C)NC(=O)[C@H](CC(C)C)NC(=O)[C@H](CC(N)=O)NC(=O)[C@@H]4CCCN4C(=O)[C@H](CCCNC(=N)N)NC(=O)[C@H](CSSC[C@H](NC(=O)[C@@H](N)CC(=O)O)C(=O)N[C@@H](CC(C)C)C(=O)NCC(=O)N[C@@H](CCc4ccccc4)C(=O)N[C@@H](CCSC)C(=O)N[C@@H](CCCNC(=N)N)C(=O)N[C@@H](CCCCN)C(=O)N2)NC(=O)[C@H](CSSC[C@@H](C(=O)N[C@@H](CCCCN)C(=O)N[C@@H](Cc2ccc(O)cc2)C(=O)N[C@H](C(=O)N[C@@H](Cc2ccccc2)C(N)=O)C(C)C)NC(=O)[C@H](Cc2c[nH]c4ccccc24)NC(=O)[C@H](CCCCN)NC(=O)[C@H](Cc2c[nH]cn2)NC(=O)[C@H]([C@@H](C)O)NC(=O)[C@H](CCCNC(=N)N)NC(=O)[C@H](CO)NC3=O)NC(=O)[C@H](CCCCN)NC(=O)[C@H](CC(=O)O)NC(=O)[C@H](CC(N)=O)NC(=O)[C@H](CC(=O)O)NC(=O)[C@@H]2CCCN2C1=O [compound 690],IC50,"[1]; use-dependent protocol, hNav1.3",180 nM
same,IC50,[2]; IWQ Use Nav1.5,> 5 µM
same,IC50,"[3]; IonWorks Quattro, use-dependent protocol, hNav1.7, read-out: IWQ Use Nav1.7",90 nM
"CC[C@H](C)[C@@H]1NC(=O)[C@@H]2CSSC[C@@H]3NC(=O)[C@H](C(C)C)NC(=O)[C@H](CC(C)C)NC(=O)[C@H](CC(N)=O)NC(=O)[C@@H]4CCCN4C(=O)[C@H](CCCNC(=N)N)NC(=O)[C@H](CSSC[C@H](NC(=O)[C@@H](N)CC(=O)O)C(=O)N[C@@H](CC(C)C)C(=O)NCC(=O)N[C@@H](C)C(=O)N[C@@H](CCSC)C(=O)N[C@@H](CCCNC(=N)N)C(=O)N[C@@H](CCCCN)C(=O)N2)NC(=O)[C@H](CSSC[C@@H](C(=O)N[C@@H](CCCCN)C(=O)N[C@@H](Cc2c[nH]c4ccccc24)C(=O)N[C@H](C(=O)N[C@@H](Cc2ccccc2)C(N)=O)C(C)C)NC(=O)[C@H](Cc2c[nH]c4ccccc24)NC(=O)[C@H](CCCCN)NC(=O)[C@H](Cc2c[nH]cn2)NC(=O)[C@H]([C@@H](C)O)NC(=O)[C@H](CCCNC(=N)N)NC(=O)[C@H](CO)NC3=O)NC(=O)[C@H](CCCCN)NC(=O)[C@H](CC(=O)O)NC(=O)[C@H](CC(N)=O)NC(=O)[C@H](CC(=O)O)NC(=O)[C@@H]2CCCN2C1=O [compound 253] (H-DCLGAMRKCIPDNDKCCRPNLVCSRTHKWCKWVF-NH2; disulfide 2-17, 9-23, 16-30)",IC50,"[1]; use-dependent block, hNav1.3",530 nM
same,IC50,"[2]; IonWorks Quattro, use-dependent block, hNav1.5, read-out: IWQ Use Nav1.5",5 µM
same,IC50,"[3]; IonWorks Quattro, use-dependent block, hNav1.7, read-out: IWQ Use Nav1.7",270 nM

# Source: patent US9340590B2 (priority 2011, dated 2016)
